Literature values, collected in patent US20070065542A1 (Board Of Regents, The University Of Texas System, priority 2005, published 2007).
Read-outs that look alike come from different tables or passages of the source.

Assays:
[1] = very high concentration
[2] = dissociation constant
[3] = soluble iron complexes and reference complexes, known values
[4] = soluble complexes of calcium, from literature

## [Cl][Fe]([Cl])[Cl] [ferric chloride]
[1]
  pH at which precipitation of iron occurred: 3-4

## O=C(O)O [Carbonate anion]
[2]
  pK1: 6.1
  pK2: 10.3

## O=C1O[C@H]([C@@H](O)CO)C(O)=C1O.[Fe+2] [Ferrous monohydrogen ascorbate]
[3]
  Stability constant: 1.30

## O=C([O-])CC(O)C(=O)[O-].[Ca+2] (stereo not drawn) [CaMal]
[4]
  Stability constant: 2.19

## CC(O)C(=O)O (stereo not drawn) [Lactic Acid]
[2]
  pK1: 3.87
